Source: ChEMBL document CHEMBL5465560, “Selectivity Literature for EUbOPEN Chemogenomic Library” (2024)

Key:
[1] = Selectivity interaction (KinomeScan (DiscoverX)) EUB0001079a PKNB; settings: at 1 µM
[2] = molecular target: T1, Cytoplasmic tyrosine-protein kinase BMX (Homo sapiens) (UniProt P51813); experiment: Selectivity interaction (SelectScreen profiling (Invitrogen)) EUB0000607a BMX; settings: at 2 µM
T1 sequence (whole entry): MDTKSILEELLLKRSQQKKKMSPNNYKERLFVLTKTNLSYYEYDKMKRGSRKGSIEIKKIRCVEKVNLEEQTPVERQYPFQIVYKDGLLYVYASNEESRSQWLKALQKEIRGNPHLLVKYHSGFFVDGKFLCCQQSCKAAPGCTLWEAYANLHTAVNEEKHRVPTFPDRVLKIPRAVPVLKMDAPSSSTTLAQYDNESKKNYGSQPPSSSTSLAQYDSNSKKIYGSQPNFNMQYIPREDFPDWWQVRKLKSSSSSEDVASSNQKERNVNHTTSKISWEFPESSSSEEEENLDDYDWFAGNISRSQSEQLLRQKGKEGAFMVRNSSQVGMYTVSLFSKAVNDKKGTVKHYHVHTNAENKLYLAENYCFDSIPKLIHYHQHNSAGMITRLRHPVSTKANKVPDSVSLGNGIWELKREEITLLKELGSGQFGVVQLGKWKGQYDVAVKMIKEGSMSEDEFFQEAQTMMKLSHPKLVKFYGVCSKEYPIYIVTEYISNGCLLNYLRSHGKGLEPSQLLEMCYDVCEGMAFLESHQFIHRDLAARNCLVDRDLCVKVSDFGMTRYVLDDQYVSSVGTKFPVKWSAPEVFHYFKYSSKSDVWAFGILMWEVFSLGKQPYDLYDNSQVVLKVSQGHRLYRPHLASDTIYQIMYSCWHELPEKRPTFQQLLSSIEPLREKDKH

[3] = molecular target: Casein kinase I isoform alpha (Homo sapiens, UniProt P48729); experiment: Selectivity interaction (KinomeScan (DiscoverX)) EUB0000607a CSNK1A1; settings: at 10 µM
Casein kinase I isoform alpha, sequence (P48729 2-337 limits assumed): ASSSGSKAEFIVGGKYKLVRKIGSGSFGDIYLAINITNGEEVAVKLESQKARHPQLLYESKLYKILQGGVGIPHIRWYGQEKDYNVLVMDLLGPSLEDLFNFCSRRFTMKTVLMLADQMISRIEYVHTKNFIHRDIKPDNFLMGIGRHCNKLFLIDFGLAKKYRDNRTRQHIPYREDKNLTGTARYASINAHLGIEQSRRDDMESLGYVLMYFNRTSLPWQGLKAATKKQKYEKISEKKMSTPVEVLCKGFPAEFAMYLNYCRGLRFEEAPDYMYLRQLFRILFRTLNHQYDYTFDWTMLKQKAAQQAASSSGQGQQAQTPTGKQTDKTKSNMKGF

[4] = molecular target: Mitogen-activated protein kinase 8 (Homo sapiens, UniProt P45983); experiment: Selectivity interaction (KinomeScan (DiscoverX)) EUB0001619a MAPK8; settings: at 1 µM
Mitogen-activated protein kinase 8, sequence (P45983 whole entry): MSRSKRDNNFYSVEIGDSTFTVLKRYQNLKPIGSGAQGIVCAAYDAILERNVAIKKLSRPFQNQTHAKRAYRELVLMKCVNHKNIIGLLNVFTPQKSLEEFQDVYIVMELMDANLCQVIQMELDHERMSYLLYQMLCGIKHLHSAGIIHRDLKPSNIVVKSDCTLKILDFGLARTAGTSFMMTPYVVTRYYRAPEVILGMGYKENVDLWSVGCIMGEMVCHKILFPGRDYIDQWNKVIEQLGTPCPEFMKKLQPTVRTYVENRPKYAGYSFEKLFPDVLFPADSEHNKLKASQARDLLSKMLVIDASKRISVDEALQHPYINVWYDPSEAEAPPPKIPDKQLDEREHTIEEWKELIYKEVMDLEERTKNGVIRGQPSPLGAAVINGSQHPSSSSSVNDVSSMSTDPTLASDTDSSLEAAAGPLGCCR

[5] = molecular target: T2, 5'-AMP-activated protein kinase catalytic subunit alpha-1 (Homo sapiens, UniProt Q13131); experiment: Selectivity interaction (ActivX KiNativ screen (ex vivo kinase selectivity in human PBMCs)) EUB0001619a PRKAA1; assay type: cell-based; settings: PBMC, at 1 µM
T2 sequence (Q13131 whole entry, looked up): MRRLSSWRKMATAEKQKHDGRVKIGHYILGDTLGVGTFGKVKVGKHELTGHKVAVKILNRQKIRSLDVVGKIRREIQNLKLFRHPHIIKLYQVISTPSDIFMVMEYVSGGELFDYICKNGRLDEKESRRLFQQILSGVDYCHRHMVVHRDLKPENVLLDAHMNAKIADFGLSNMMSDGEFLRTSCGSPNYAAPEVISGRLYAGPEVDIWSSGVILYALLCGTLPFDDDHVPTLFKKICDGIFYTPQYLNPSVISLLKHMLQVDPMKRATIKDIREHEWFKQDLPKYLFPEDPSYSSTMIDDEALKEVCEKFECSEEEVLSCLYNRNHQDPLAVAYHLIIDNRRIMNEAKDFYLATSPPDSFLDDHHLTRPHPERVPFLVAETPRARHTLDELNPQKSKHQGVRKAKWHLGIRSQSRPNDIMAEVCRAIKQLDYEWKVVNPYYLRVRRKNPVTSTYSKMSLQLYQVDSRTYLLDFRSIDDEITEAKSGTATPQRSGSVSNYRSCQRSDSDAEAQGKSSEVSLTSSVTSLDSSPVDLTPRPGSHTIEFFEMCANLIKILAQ

[6] = molecular target: Ephrin type-A receptor 4 (Homo sapiens, UniProt P54764); settings: at 10 µM
Ephrin type-A receptor 4, sequence (P54764 whole entry): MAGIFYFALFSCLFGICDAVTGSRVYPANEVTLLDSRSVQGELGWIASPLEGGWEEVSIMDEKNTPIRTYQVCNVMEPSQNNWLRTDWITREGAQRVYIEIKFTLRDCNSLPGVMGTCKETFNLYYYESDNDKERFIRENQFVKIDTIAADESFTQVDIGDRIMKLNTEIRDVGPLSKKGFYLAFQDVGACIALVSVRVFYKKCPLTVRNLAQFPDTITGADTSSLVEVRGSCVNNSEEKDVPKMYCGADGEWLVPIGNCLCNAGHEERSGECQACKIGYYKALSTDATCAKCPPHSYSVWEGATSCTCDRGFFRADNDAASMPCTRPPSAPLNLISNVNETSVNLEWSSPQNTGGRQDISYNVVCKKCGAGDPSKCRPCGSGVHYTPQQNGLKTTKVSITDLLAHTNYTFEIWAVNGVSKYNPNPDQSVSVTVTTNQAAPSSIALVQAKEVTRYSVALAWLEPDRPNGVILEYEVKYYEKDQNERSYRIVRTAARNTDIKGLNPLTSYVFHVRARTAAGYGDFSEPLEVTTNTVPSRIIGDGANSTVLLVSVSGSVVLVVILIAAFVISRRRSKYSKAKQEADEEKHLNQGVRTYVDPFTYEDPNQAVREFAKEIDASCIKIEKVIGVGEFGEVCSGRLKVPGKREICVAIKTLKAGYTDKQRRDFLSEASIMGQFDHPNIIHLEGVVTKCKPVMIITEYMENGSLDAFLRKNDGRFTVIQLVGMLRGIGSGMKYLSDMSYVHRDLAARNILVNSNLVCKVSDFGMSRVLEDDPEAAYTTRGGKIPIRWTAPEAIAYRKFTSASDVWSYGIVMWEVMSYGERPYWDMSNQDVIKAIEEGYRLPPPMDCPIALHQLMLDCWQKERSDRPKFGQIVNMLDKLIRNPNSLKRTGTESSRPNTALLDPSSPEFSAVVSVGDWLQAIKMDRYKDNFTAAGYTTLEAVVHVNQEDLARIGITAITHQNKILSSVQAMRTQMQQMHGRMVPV

[7] = molecular target: T2, 5'-AMP-activated protein kinase catalytic subunit alpha-1; experiment: Selectivity interaction (Upstate Kinase Profiler service (Millipore)) EUB0000056c PRKAA1; settings: at 1 µM
[8] = molecular target: Phosphorylase b kinase gamma catalytic chain, skeletal muscle/heart isoform (Homo sapiens) (UniProt Q16816); settings: at 10 µM
Phosphorylase b kinase gamma catalytic chain, skeletal muscle/heart isoform (Homo sapiens), sequence (Q16816 whole entry, looked up, canonical isoform): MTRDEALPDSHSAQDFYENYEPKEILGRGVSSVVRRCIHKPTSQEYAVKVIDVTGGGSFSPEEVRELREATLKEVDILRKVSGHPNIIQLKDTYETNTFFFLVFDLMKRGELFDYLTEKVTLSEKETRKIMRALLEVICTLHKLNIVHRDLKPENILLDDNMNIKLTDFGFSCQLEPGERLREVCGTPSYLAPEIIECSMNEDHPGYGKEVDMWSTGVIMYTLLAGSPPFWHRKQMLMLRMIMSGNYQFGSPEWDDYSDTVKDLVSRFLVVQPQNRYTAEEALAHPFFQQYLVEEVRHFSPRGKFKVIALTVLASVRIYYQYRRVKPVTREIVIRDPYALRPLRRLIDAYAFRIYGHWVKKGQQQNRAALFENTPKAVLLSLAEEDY

[9] = test system: Tyrosine-protein kinase ABL1 (Homo sapiens), P00519 [F317L]; settings: at 10 µM
Tyrosine-protein kinase ABL1 (Homo sapiens), P00519 [F317L], sequence (P00519 whole entry F317L): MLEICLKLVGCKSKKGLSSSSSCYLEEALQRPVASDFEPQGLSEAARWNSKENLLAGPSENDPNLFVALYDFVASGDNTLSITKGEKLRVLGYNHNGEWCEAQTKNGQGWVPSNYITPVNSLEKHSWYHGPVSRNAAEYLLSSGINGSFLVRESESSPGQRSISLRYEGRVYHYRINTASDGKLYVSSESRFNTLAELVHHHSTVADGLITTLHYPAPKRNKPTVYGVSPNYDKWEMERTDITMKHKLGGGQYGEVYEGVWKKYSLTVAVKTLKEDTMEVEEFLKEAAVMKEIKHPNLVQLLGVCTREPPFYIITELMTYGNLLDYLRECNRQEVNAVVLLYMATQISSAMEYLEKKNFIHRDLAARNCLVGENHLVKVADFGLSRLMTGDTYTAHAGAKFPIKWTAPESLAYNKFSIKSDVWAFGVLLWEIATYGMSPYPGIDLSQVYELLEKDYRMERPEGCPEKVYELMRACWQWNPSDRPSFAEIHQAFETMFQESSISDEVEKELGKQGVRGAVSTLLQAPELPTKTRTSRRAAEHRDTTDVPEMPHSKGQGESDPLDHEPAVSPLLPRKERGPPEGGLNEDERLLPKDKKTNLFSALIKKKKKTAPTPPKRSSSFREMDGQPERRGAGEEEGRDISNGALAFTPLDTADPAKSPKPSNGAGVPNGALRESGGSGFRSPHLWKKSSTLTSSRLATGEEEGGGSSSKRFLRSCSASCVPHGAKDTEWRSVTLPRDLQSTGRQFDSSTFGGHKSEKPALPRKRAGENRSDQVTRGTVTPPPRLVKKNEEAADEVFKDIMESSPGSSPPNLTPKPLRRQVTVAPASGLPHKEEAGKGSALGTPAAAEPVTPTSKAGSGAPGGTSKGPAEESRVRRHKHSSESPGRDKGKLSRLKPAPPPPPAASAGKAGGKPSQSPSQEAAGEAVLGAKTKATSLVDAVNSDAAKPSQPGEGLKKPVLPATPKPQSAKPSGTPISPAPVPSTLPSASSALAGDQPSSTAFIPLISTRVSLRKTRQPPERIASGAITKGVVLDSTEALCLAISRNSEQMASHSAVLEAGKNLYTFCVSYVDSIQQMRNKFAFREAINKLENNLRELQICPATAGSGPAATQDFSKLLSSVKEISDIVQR

[10] = molecular target: cAMP-dependent protein kinase catalytic subunit alpha (Homo sapiens, UniProt P17612); experiment: Selectivity interaction (KinomeScan (DiscoverX)) EUB0001049a PRKACA; settings: at 1 µM
[11] = molecular target: Tyrosine-protein kinase Lyn (Homo sapiens, UniProt P07948); experiment: Selectivity interaction (KinomeScan (DiscoverX)) EUB0001049a LYN; settings: at 1 µM
Tyrosine-protein kinase Lyn, sequence (P07948 2-512 limits assumed): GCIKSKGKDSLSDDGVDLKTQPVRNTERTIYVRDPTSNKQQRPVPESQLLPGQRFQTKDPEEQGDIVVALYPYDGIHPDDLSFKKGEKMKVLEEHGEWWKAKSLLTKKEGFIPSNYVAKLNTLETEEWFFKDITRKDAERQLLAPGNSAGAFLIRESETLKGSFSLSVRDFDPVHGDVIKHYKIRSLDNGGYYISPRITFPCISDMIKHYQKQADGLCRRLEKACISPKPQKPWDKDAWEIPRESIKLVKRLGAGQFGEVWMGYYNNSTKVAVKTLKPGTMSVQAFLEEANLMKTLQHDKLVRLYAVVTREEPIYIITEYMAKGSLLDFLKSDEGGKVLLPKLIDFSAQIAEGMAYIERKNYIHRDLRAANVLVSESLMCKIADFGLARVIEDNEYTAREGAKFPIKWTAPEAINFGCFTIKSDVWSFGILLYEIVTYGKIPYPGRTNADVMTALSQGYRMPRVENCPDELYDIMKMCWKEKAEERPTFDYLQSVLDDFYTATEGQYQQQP

[12] = molecular target: T3, MAP/microtubule affinity-regulating kinase 4 (Homo sapiens) (UniProt Q96L34); experiment: Selectivity interaction (KinomeScan (DiscoverX)) EUB0000666a MARK4; settings: at 10 µM
T3 sequence (whole entry): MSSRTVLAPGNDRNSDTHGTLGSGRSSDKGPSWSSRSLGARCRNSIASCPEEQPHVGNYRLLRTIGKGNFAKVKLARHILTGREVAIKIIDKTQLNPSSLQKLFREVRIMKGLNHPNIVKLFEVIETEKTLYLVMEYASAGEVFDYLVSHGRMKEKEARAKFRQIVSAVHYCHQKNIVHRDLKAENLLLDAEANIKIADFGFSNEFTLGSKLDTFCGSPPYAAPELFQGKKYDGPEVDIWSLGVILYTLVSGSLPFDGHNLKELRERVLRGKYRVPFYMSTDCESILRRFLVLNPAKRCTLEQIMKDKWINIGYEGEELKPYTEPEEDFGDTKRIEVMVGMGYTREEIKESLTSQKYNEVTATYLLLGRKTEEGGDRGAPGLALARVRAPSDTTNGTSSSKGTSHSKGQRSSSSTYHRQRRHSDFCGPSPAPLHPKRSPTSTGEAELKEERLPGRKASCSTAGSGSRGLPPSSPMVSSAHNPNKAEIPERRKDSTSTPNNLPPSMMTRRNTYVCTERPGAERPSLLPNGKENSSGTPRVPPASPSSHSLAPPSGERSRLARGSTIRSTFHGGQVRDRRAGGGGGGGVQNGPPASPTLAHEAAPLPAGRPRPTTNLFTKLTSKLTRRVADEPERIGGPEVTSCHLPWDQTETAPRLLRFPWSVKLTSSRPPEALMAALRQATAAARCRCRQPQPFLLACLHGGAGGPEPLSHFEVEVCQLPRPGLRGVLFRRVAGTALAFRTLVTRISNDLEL

[13] = molecular target: Cyclin-dependent kinase 15 (Homo sapiens) (UniProt Q96Q40); experiment: Selectivity interaction (KinomeScan (DiscoverX)) EUB0000092b CDK15; settings: at 10 µM
Cyclin-dependent kinase 15 (Homo sapiens), sequence (Q96Q40 whole entry): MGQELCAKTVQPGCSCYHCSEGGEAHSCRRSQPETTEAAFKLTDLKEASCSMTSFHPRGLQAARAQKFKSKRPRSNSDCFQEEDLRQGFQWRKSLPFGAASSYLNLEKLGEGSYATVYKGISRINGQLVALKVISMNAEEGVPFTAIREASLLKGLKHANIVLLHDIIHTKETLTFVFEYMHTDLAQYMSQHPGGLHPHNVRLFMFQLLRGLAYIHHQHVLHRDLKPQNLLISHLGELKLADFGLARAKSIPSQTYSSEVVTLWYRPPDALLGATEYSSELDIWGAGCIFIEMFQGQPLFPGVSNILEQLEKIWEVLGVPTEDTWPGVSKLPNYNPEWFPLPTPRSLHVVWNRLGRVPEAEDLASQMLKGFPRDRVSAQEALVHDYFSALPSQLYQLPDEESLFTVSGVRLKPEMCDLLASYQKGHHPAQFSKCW

With Nc1cnc(N2CCc3cc(S(=O)(=O)Nc4c(F)cc(Cl)cc4F)cc(N4CCCC4=O)c32)nc1 [TP-020n] the % of control [1] was 96%.

Work on CNC(=O)Nc1ccc(-c2nc(N3CC4CCC(C3)O4)c3cnn(C4CCC5(CC4)OCCO5)c3n2)cc1 yielded a % of inhibition [2] of 10% and a % of control [3] of 100%.

Work on N#Cc1cccc(-c2c[nH]c3ncnc(N4CCOCC4)c23)c1 yielded a % of control [4] of 62% and a % of inhibition [5] of 27%.

With COCC(=O)NC/C=C/c1ccc2ncnc(Nc3ccc(Oc4ccc(C)nc4)c(C)c3)c2c1 [CP-724714] the % of control [6] was 98%.

Work on Cc1ccc(-c2ccc3c(ccc4sc5c(c43)NC[C@@H](C)NC5=O)n2)cn1 yielded a % of inhibition [7] of 77%.

Cc1cc([C@@H](C)Nc2ccccc2C(=O)O)c2nc(N3CCOCC3)cc(=O)n2c1 [AZD-6482] gave a % of control [8] of 93% and a % of control [9] of 89%.

COc1cc(Nc2nc(C)cc(-c3cnn4nc(OC)ccc34)n2)cc(C(F)(F)F)c1 showed a % of control [10] of 92% and a % of control [11] of 89%.

With O=C(NOC[C@H](O)CO)c1ccc(F)c(F)c1Nc1ccc(I)cc1F the % of control [12] was 100%.

Work on CCC(=O)N1CCN(c2ccc(-n3c(=O)ccc4cnc5ccc(-c6cnc7ccccc7c6)cc5c43)cc2C(F)(F)F)CC1 yielded a % of control [13] of 88%.
